Experimental data reported in US9708334B2, “Substituted 2,4,5,6-tetrahydropyrrolo[3,4-c]pyrazole and 4,5,6,7-tetrahydro-2H-pyrazolo[4,3-c]pyridine compounds as GlyT1 inhibitors” (DART NEUROSCIENCE (CAYMAN) LTD., priority 2014, dated 2017).

Target: T1, GlyT1 (Homo sapiens, UniProt P48067)
T1 construct: expressed in transfected cells
T1 sequence (P48067 1-706): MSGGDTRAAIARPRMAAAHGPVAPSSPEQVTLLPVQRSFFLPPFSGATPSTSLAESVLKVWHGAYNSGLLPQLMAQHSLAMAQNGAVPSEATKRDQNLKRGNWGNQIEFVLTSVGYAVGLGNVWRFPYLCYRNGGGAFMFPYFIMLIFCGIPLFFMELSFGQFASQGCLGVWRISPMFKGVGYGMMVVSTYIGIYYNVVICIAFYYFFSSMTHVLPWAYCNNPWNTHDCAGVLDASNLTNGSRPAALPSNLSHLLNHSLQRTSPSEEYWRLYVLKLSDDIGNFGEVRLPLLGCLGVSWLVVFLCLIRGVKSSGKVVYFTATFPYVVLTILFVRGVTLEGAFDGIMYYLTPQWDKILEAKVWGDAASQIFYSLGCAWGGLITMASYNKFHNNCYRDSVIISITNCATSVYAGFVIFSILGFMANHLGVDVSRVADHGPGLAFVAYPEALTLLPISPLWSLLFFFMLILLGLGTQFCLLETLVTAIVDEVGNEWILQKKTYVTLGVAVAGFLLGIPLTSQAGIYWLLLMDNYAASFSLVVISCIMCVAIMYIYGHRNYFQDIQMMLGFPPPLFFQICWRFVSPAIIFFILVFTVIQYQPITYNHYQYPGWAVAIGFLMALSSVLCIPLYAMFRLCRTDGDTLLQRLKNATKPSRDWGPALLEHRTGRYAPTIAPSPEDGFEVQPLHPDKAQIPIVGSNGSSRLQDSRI
Experiment: Glycine Transporter 1 (GlyT1) uptake assay, scintillation proximity assay of [14C]-glycine uptake
Type: cell-based
Conditions: SPA, four parameter logistic fit, read-out: GlyT1 (pIC50) (converted)
Protocol: Glycine Transporter 1 (GlyT1) Uptake Assay
Plates were then read on a MicroBeta plate counter (Perkin Elmer). Dose-response data for tested compounds were analyzed and curves were fit using a four parameter logistic fit to determine IC50 values. […]

Row | IC50 | Structure (SMILES)
1 | < 100 nM | CC(C)COc1ccc(S(C)(=O)=O)cc1C(=O)N1Cc2cn(-c3cccc(C(F)(F)F)c3)nc2C1 [Example 53, 5-[5-Methanesulfonyl-2-(2-methylpropoxy)benzoyl]-2-[3-(trifluoromethyl)phenyl]-2H 4H 5H 6H-pyrrolo[3,4-c]pyrazole]
2 | < 100 nM | CS(=O)(=O)c1ccc(N2CCC(F)(F)CC2)c(C(=O)N2Cc3cn(-c4ccccc4)nc3C2)c1 [Example 54, 4 4-Difluoro-1-(4-methanesulfonyl-2-{2-phenyl-2H 4H 5H 6H-pyrrolo[3,4-c]pyrazole-5-carbonyl}phenyl)piperidine]
3 | < 100 nM | CS(=O)(=O)c1ccc(N2CCC(F)(F)CC2)c(C(=O)N2Cc3cn(-c4cccc(C(F)(F)F)c4)nc3C2)c1 [Example 55, 4 4-Difluoro-1-(4-methanesulfonyl-2-{2-[3-(trifluoromethyl)phenyl]-2H 4H 5H 6H-pyrrolo[3,4-e]pyrazole-5-carbonyl}phenyl)piperidine]
4 | < 100 nM | CS(=O)(=O)c1ccc(N2CCC(F)(F)CC2)c(C(=O)N2Cc3cn(-c4ccc(F)cc4)nc3C2)c1 [Example 56, 4 4-Difluoro-1-{2-[2-(4-fluorophenyl)-2H 4H 5H 6H-pyrrolo[3,4-c]pyrazole-5-carbonyl]-4-methanesulfonylphenyl}piperidine]
5 | < 100 nM | Cc1c(F)ccc(-n2cc3c(n2)CN(C(=O)c2cc(S(C)(=O)=O)ccc2O[C@@H](C)C(F)(F)F)C3)c1F [Example 58, 2-(2 4-Difluoro-3-methylphenyl)-5-(5-methanesulfonyl-2-{[(2S)-1 1 1-trifluoropropan-2-yl]oxy}benzoyl)-2H 4H 5H 6H-pyrrolo[3,4-c]pyrazole]
6 | < 100 nM | C[C@H](Oc1ccc(S(C)(=O)=O)cc1C(=O)N1Cc2cn(-c3cc(Cl)ccc3F)nc2C1)C(F)(F)F [Example 59, 2-(5-Chloro-2-fluorophenyl)-5-(5-methanesulfonyl-2-{[(2S)-1 1 1-trifluoropropan-2-yl]oxy}benzoyl)-2H 4H 5H 6H-pyrrolo[3,4-c]pyrazole]
7 | < 100 nM | CC(C)Oc1ccc(S(C)(=O)=O)cc1C(=O)N1Cc2cn(-c3ccccc3F)nc2C1 [Example 60, 2-(2-Fluorophenyl)-5-[5-methanesulfonyl-2-(propan-2-yloxy)benzoyl]-2H 4H 5H 6H-pyrrolo[3,4-c]pyrazole]
8 | < 100 nM | Cc1c(F)ccc(-n2cc3c(n2)CN(C(=O)c2cc(S(C)(=O)=O)ccc2OC(C)C)C3)c1F [Example 61, 2-(2 4-Difluoro-3-methylphenyl)-5-[5-methanesulfonyl-2-(propan-2-yloxy)benzoyl]-2H 4H 5H 6H-pyrrolo[3,4-c]pyrazole]
9 | < 100 nM | CC(C)Oc1ccc(S(C)(=O)=O)cc1C(=O)N1Cc2cn(-c3cc(Cl)ccc3F)nc2C1 [Example 62, 2-(5-Chloro-2-fluorophenyl)-5-[5-methanesulfonyl-2-(propan-2-yloxy)benzoyl]-2H 4H 5H 6H-pyrrolo[3,4-c]pyrazole]
10 | < 100 nM | CC(C)(C)COc1ccc(S(C)(=O)=O)cc1C(=O)N1Cc2cn(-c3ccccc3F)nc2C1 [Example 63, 5-[2-(2 2-Dimethylpropoxy)-5-methanesulfonylbenzoyl]-2-(2-fluorophenyl)-2H 4H 5H 6H-pyrrolo[3,4-c]pyrazole]
11 | < 100 nM | Cc1c(F)ccc(-n2cc3c(n2)CN(C(=O)c2cc(S(C)(=O)=O)ccc2OCC(C)(C)C)C3)c1F [Example 64, 2-(2 4-Difluoro-3-methylphenyl)-5-[2-(2 2-dimethylpropoxy)-5-methanesulfonylbenzoyl]-2H 4H 5H 6H-pyrrolo[3,4-c]pyrazole]
12 | < 100 nM | CC(C)(C)COc1ccc(S(C)(=O)=O)cc1C(=O)N1Cc2cn(-c3cc(Cl)ccc3F)nc2C1 [Example 65, 2-(5-Chloro-2-fluorophenyl)-5-[2-(2 2-dimethylpropoxy)-5-methanesulfonylbenzoyl]-2H 4H 5H 6H-pyrrolo[3,4-c]pyrazole]
13 | < 100 nM | CC(C)COc1ccc(S(C)(=O)=O)cc1C(=O)N1Cc2cn(-c3ccccc3F)nc2C1 [Example 66, 2-(2-Fluorophenyl)-5-[5-methanesulfonyl-2-(2-methylpropoxy)benzoyl]-2H 4H 5H 6H-pyrrolo[3,4-c]pyrazole]
14 | < 100 nM | Cc1c(F)ccc(-n2cc3c(n2)CN(C(=O)c2cc(S(C)(=O)=O)ccc2OCC(C)C)C3)c1F [Example 67, 2-(2 4-Difluoro-3-methylphenyl)-5-[5-methanesulfonyl-2-(2-methylpropoxy)benzoyl]-2H 4H 5H 6H-pyrrolo[3,4-c]pyrazole]
15 | < 100 nM | CC(C)COc1ccc(S(C)(=O)=O)cc1C(=O)N1Cc2cn(-c3cc(Cl)ccc3F)nc2C1 [Example 68, 2-(5-Chloro-2-fluorophenyl)-5-[5-methanesulfonyl-2-(2-methylpropoxy)benzoyl]-2H 4H 5H 6H-pyrrolo[3,4-c]pyrazole]
16 | < 100 nM | Cc1c(F)ccc(-n2cc3c(n2)CN(C(=O)c2cc(S(C)(=O)=O)ccc2N2CCC(F)(F)CC2)C3)c1F [Example 70, 1-{2-[2-(2 4-Difluoro-3-methylphenyl)-2H 4H 5H 6H-pyrrolo[3,4-c]pyrazole-5-carbonyl]-4-methanesulfonylphenyl}-4 4-difluoropiperidine]
17 | < 100 nM | CS(=O)(=O)c1ccc(N2CCC(F)(F)CC2)c(C(=O)N2Cc3cn(-c4cc(Cl)ccc4F)nc3C2)c1 [Example 71, 1-{2-[2-(5-Chloro-2-fluorophenyl)-2H 4H 5H 6H-pyrrolo[3,4-c]pyrazole-5-carbonyl]-4-methanesulfonylphenyl}-4 4-difluoropiperidine]
18 | < 100 nM | CCS(=O)(=O)c1ccc(O[C@@H](C)C(F)(F)F)c(C(=O)N2Cc3cn(-c4cccc(C)c4)nc3C2)c1 [Example 72, 5-[5-(Ethanesulfonyl)-2-{[(2S)-1 1 1-trifluoropropan-2-yl]oxy}benzoyl]-2-(3-methylphenyl)-2H 4H 5H 6H-pyrrolo[3,4-c]pyrazole]
19 | < 100 nM | CCS(=O)(=O)c1ccc(OC(C)C)c(C(=O)N2Cc3cn(-c4ccccc4)nc3C2)c1 [Example 73, 5-[5-(Ethanesulfonyl)-2-(propan-2-yloxy)benzoyl]-2-phenyl-2H 4H 5H 6H-pyrrolo[3,4-c]pyrazole]
20 | 100 to 1000 nM | CCS(=O)(=O)c1ccc(OC(C)C)c(C(=O)N2Cc3cn(-c4ccccc4F)nc3C2)c1 [Example 74, 5-[5-(Ethanesulfonyl)-2-(propan-2-yloxy)benzoyl]-2-(2-fluorophenyl)-2H 4H 5H 6H-pyrrolo[3,4-c]pyrazole]
21 | < 100 nM | C[C@H](Oc1ccc(S(C)(=O)=O)cc1C(=O)N1Cc2cn(-c3ccc(F)c(C(F)F)c3)nc2C1)C(F)(F)F [Example 75, 2-[3-(Difluoromethyl)-4-fluorophenyl]-5-(5-methanesulfonyl-2-{[(2S)-1 1 1-trifluoropropan-2-yl]oxy}benzoyl)-2H 4H 5H 6H-pyrrolo[3,4-c]pyrazole]
22 | < 100 nM | CC(C)Oc1ccc(S(C)(=O)=O)cc1C(=O)N1Cc2cn(-c3ccc(F)c(C(F)F)c3)nc2C1 [Example 76, 2-[3-(Difluoromethyl)-4-fluorophenyl]-5-[5-methanesulfonyl-2-(propan-2-yloxy)benzoyl]-2H 4H 5H 6H-pyrrolo[3,4-c]pyrazole]
23 | < 100 nM | CC(C)(C)COc1ccc(S(C)(=O)=O)cc1C(=O)N1Cc2cn(-c3ccc(F)c(C(F)F)c3)nc2C1 [Example 77, 2-[3-(Difluoromethyl)-4-fluorophenyl]-5-[2-(2 2-dimethylpropoxy)-5-methanesulfonylbenzoyl]-2H 4H 5H 6H-pyrrolo[3,4-e]pyrazole]
